From patent US12544365B2, “Pharmaceutical combination of an EP4 antagonist and immune checkpoint inhibitors for the treatment of tumours” (ROTTAPHARM BIOTECH S.R.L., priority 2019, dated 2026) come the findings set out here.

For experiment [1], the target named is human recombinant EP4 receptor (Homo sapiens, UniProt P35408). In words: [3H]-PGE2 specific binding on human recombinant EP4 receptor (HEK293 membranes). As to the method: Cell membranes were prepared from HEK293 cell line (Human Embryonic Kidney 293) stably overexpressing human recombinant EP4 receptor. Cells grow adherent in DMEM with Glutamax | containing 10% FBS at 37° C. with 5% CO2. For membranes preparation, culture medium was aspirated from 150 cm^2 flasks in which cells were seeded. Cell monolayers were washed with 10 ml of hypotonic lysis buffer (TRIS 5 mM+EDTA 5 mM-pH 7.4), then cells were detached and lysed with the same buffer and by mechanical scraping. Lysates were centrifuged at 40000×g at 4° C. for 22 min. Pellets were stored at −80° C. until the use.
human recombinant EP4 receptor, sequence (P35408 whole entry): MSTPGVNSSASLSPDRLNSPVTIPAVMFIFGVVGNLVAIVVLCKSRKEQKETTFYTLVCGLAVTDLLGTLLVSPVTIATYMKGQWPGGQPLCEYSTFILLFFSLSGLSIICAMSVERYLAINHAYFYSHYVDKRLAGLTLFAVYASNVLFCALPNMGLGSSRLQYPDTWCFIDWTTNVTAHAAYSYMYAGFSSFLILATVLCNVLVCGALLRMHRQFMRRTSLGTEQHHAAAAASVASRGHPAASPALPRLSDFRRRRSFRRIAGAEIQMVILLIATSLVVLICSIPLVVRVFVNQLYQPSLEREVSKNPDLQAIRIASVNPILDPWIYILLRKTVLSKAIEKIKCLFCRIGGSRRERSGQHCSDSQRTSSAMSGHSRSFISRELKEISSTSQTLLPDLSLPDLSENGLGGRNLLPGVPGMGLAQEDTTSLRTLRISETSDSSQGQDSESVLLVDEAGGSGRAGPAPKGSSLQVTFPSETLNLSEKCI
[3H]-Prostaglandin E2 ([3H]-PGE2) binding assays were performed in 10 mM MES-KOH buffer pH6, containing 10 mM MgCl2 and 1 mM CaCl2. Ten microgram of protein from membrane fractions are incubated in a total volume of 0.1 ml with 1 nM [3H]-PGE2. In order to determine the total binding or the non specific binding, 1% DMSO or 1 μM PGE2 were added to reaction mixtures, respectively. The specific binding represented >85% of total binding. In competition curves, the diluent was substituted by the test compounds (8 concentration spanning at least 2 order of magnitude; points in duplicates). In an independent series of experiments, competition curves of the same compounds were performed in the presence of Bovine Serum Albumin 0.5%. Incubation was carried out in a 96 multiwell plate for 90 min at room temperature, prior to separation of the bound and free radioligand by rapid filtration on glass fiber filters (Unifilter GFB96, PerkinElmer Inc) pre-soaked in 0.3% polyethyleneimine. Filters were washed with ice cold buffer pH 7.4 (50 mM HEPES, NaCl 500 mM, BSA 0.1%), dried for 30 minutes at 30° C. and then 0.1 ml of MICROSCINT-20 (PerkinElmer Inc) were added. The residual [3H]-PGE2 binding was determined by solid scintillation counter (TopCount, PerkinElmer Inc), after at least 1 hour of stabilization. Results of the competition curves were expressed as IC50 and the corresponding Ki were calculated according to the Chang-Prousoff equation. Finally the Ki value was transformed in pKi (the negative log of Ki).

The subject of another experiment is CT26 cancer cell tumours. The experiment in a line: CT26 syngeneic model of mouse colorectal cancer in Balb/c mice. It is filed as in vivo. As to conditions: compounds 30 mg/kg oral daily day 7-23; anti PD-1 i.p. 20 mg/kg day 8, 10 mg/kg days 13, 19, 22. The procedure:
Male Balb/c mice 4-6 weeks old were housed five per cage in a temperature and humidity controlled room with a 12h/12h light/dark cycle. Throughout the experiment the animals had free access to food and water. The Balb/c mice were randomly divided into 6 groups (n=15 in each group): vehicle, Compound 1, Compound 2, anti PD-1, Compound 1+anti PD-1, Compound 2+anti PD-1 group.
CT26 cells were purchased from ATCC and cultured in Dulbecco's Modified Eagle's Medium (DMEM; ThermoFisher Scientific) supplemented with 10% fetal bovine serum (FBS; Sigma Aldrich) at 37° C. in an incubator with 5% CO2. Cells were sub-cultured twice a week until the number of cells needed for inoculation was obtained.
On the day of transplantation (day 0) logarithmic growing phase cells were harvested, diluted in PBS and 10^6 cells in 0.2 ml of PBS were subcutaneously inoculated into the lateral abdominal region of each mouse using a 26G syringe.
On day 7 after inoculation the mice were randomized into the 6 treatment groups each of 15 animals receiving respectively vehicle, Compound 1, Compound 2, anti PD-1 and the combination therapies. […]
Tumour sizes (mm^3) were evaluated twice a week by using a digital caliper. The tumour volumes were calculated measuring the tumour lengths along the major and minor axis and using the formula: Volume=[[…]]/2.

`O=C([O-])c1ccc(C2(NC(=O)[C@H]3CCCCN3Cc3ccc(C(F)(F)F)cc3)CC2)cc1.[Na+]` [Compound 2, (R)-4-(1-(1-(4-(trifluoromethyl)benzyl)piperidine-2-carboxamido)cyclopropyl)benzoic acid, Sodium salt]: the Ki (as a rule, a dissociation constant, usually derived from enzyme kinetics or from competition with a known ligand) in experiment [1] (BSA 0.5%) was 0.2 µM; in experiment [1] (None (absence of BSA)) it was 0.0316 µM. In addition, the “lower affinity in the presence of proteins (BSA)” value in experiment [1] (BSA 0.5% vs none) was 6 fold. Further, the “effect on tumour growth (tumour volume)” value in the experiment with CT26 cancer cell tumours is reported as “only showed a slight impairment of tumour growth”.
